In ChEMBL document CHEMBL2029287, “Synthesis, study on anti-arthritic, anti-inflammatory activity and toxicity of some novel bis-oxy cyclophane diamides” (Bioorg Med Chem Lett, 2012):

Key:
[1] = tested on: Salmonella typhimurium; experiment: Mutagenic activity in Salmonella typhimurium TA 100 assessed as increase in revertants at 0.012 to 1.660 mg/plate after 48 hrs by Ames test relative to control; assay type: toxicity, organism-based; conditions: salmonella enterica subsp. enterica serovar typhimurium
[2] = Antiinflammatory activity in human RBC assessed as membrane stabilization at 200 ug/mL after 30 mins by UV-Visible spectrophotometry; assay type: functional, Erythrocyte
[3] = tested on: Salmonella typhimurium; experiment: Mutagenic activity in Salmonella typhimurium TA 100 assessed as increase in revertants at 0.039 to 5 mg/plate after 48 hrs by Ames test in presence of S9 liver fraction relative to control; assay type: toxicity, organism-based; conditions: salmonella enterica subsp. enterica serovar typhimurium
[4] = In vitro antiarthritic activity assessed as inhibition of bovine serum albumin denaturation at 50 ug/mL incubated for 20 mins at 37 degC following rise in temperature up to 57 degC for 3 mins by UV-Visible spectrophotometry; assay type: functional
[5] = tested on: Salmonella typhimurium; experiment: Mutagenic activity in Salmonella typhimurium TA 98 assessed as increase in revertants at 0.039 to 5 mg/plate after 48 hrs by Ames test relative to control; assay type: toxicity, organism-based; conditions: salmonella enterica subsp. enterica serovar typhimurium
[6] = tested on: Salmonella typhimurium; experiment: Mutagenic activity in Salmonella typhimurium TA 98 assessed as increase in revertants at 0.012 to 1.660 mg/plate after 48 hrs by Ames test in presence of S9 liver fraction relative to control; assay type: toxicity, organism-based; conditions: salmonella enterica subsp. enterica serovar typhimurium
[7] = Antiinflammatory activity in human RBC assessed as membrane stabilization at 100 ug/mL after 30 mins by UV-Visible spectrophotometry; assay type: functional, Erythrocyte
[8] = In vitro antiarthritic activity assessed as inhibition of bovine serum albumin denaturation at 800 ug/mL incubated for 20 mins at 37 degC following rise in temperature up to 57 degC for 3 mins by UV-Visible spectrophotometry; assay type: functional
[9] = tested on: Salmonella typhimurium; experiment: Mutagenic activity in Salmonella typhimurium TA 98 assessed as increase in revertants at 0.039 to 5 mg/plate after 48 hrs by Ames test in presence of S9 liver fraction relative to control; assay type: toxicity, organism-based; conditions: salmonella enterica subsp. enterica serovar typhimurium
[10] = tested on: Salmonella typhimurium; experiment: Mutagenic activity in Salmonella typhimurium TA 100 assessed as increase in revertants at 0.012 to 1.660 mg/plate after 48 hrs by Ames test in presence of S9 liver fraction relative to control; assay type: toxicity, organism-based; conditions: salmonella enterica subsp. enterica serovar typhimurium
[11] = In vitro antiarthritic activity assessed as inhibition of bovine serum albumin denaturation at 400 ug/mL incubated for 20 mins at 37 degC following rise in temperature up to 57 degC for 3 mins by UV-Visible spectrophotometry; assay type: functional
[12] = In vitro antiarthritic activity assessed as inhibition of bovine serum albumin denaturation at 200 ug/mL incubated for 20 mins at 37 degC following rise in temperature up to 57 degC for 3 mins by UV-Visible spectrophotometry; assay type: functional
[13] = In vitro antiarthritic activity assessed as inhibition of bovine serum albumin denaturation at 100 ug/mL incubated for 20 mins at 37 degC following rise in temperature up to 57 degC for 3 mins by UV-Visible spectrophotometry; assay type: functional
[14] = tested on: Erythrocyte; experiment: Antiinflammatory activity in human RBC assessed as membrane stabilization after 30 mins by UV-Visible spectrophotometry; assay type: functional
[15] = Antiinflammatory activity in human RBC assessed as membrane stabilization at 10 ug/mL after 30 mins by UV-Visible spectrophotometry; assay type: functional, Erythrocyte
[16] = In vitro antiarthritic activity assessed as inhibition of bovine serum albumin denaturation incubated for 20 mins at 37 degC following rise in temperature up to 57 degC for 3 mins by UV-Visible spectrophotometry; assay type: functional
[17] = tested on: Salmonella typhimurium; experiment: Mutagenic activity in Salmonella typhimurium TA 100 assessed as increase in revertants at 0.039 to 5 mg/plate after 48 hrs by Ames test relative to control; assay type: toxicity, organism-based; conditions: salmonella enterica subsp. enterica serovar typhimurium
[18] = Antiinflammatory activity in human RBC assessed as membrane stabilization at 50 ug/mL after 30 mins by UV-Visible spectrophotometry; assay type: functional, Erythrocyte
[19] = tested on: Salmonella typhimurium; experiment: Mutagenic activity in Salmonella typhimurium TA 98 assessed as increase in revertants at 0.012 to 1.660 mg/plate after 48 hrs by Ames test relative to control; assay type: toxicity, organism-based; conditions: salmonella enterica subsp. enterica serovar typhimurium

Compound	Ratio [1]	Activity [2] [%]	Ratio [3]	inhibition [4] [%]	Ratio [5]	Ratio [6]	Activity [7] [%]	inhibition [8] [%]	Ratio [9]	Ratio [10]	inhibition [11] [%]	inhibition [12] [%]	inhibition [13] [%]	Activity [14]	Activity [15] [%]	inhibition [16]	Ratio [17]	Activity [18] [%]	Ratio [19]
O=C1NCc2ccc(cc2)-c2cccc(c2)-c2ccc(cc2)CNC(=O)c2cccc(c2)OCc2ccc(cc2)-c2cccc(c2)-c2ccc(cc2)COc2cccc1c2	<= 2	91.59	<= 2	12.6	<= 2	<= 2	82.51	78.2	<= 2	<= 2	68.6	48.5	25.2	Dose-dependent effect	61.89	Dose-dependent effect	<= 2	71.74	<= 2
O=C1NCc2ccc(cc2)-c2cccc(c2)-c2ccc(cc2)CNC(=O)c2cccc(c2)OCc2cccc(n2)COc2cccc1c2	–	95.1	–	22	–	–	84.73	82.4	–	–	70	56.3	38.2	Dose-dependent effect	70.23	Dose-dependent effect	–	76.93	–
O=C1COc2ccc3ccc(cc3c2)OCC(=O)NCc2ccc(cc2)-c2cccc(c2)-c2ccc(cc2)CN1	–	97.2	–	20.1	–	–	90.9	90.6	–	–	84.3	67.9	49.5	Dose-dependent effect	76.5	Dose-dependent effect	–	85.5	–
O=C1NCc2ccc(cc2)-c2cccc(c2)-c2ccc(cc2)CNC(=O)c2cccc(c2)OCc2ccccc2COc2cccc1c2	–	92.37	–	25.4	–	–	82.3	92.4	–	–	81.9	72.1	50.1	Dose-dependent effect	64.03	Dose-dependent effect	–	73.33	–
C[C@]12C=CC(=O)C=C1CC[C@@H]1[C@@H]2[C@@H](O)C[C@@]2(C)[C@H]1CC[C@]2(O)C(=O)CO [PREDNISOLONE]	–	91.01	–	–	–	–	84.87	–	–	–	–	–	–	–	46.03	–	–	57.94	–
O=C1NCc2ccc(cc2)-c2cccc(c2)-c2ccc(cc2)CNC(=O)c2cccc(c2)OCc2ccccc2-c2ccccc2COc2cccc1c2	<= 2	93.3	<= 2	39.2	<= 2	<= 2	91.2	87.8	<= 2	<= 2	75.7	67.8	49.5	Dose-dependent effect	70.27	Dose-dependent effect	<= 2	82.6	<= 2
O=C1COc2ccc3ccccc3c2-c2c(ccc3ccccc23)OCC(=O)NCc2ccc(cc2)-c2cccc(c2)-c2ccc(cc2)CN1	–	97.7	–	11.7	–	–	90.6	81.9	–	–	69.9	59.7	37	Dose-dependent effect	77.3	Dose-dependent effect	–	86.2	–
O=C1COc2cccc(c2)OCC(=O)NCc2ccc(cc2)-c2cccc(c2)-c2ccc(cc2)CN1	–	96.4	–	14.5	–	–	–	96.8	–	–	83.3	60.5	25.4	Dose-dependent effect	74.5	Dose-dependent effect	–	85.4	–
O=C1NCc2ccc(cc2)-c2cccc(c2)-c2ccc(cc2)CNC(=O)c2cccc(c2)OCc2cccc(c2)COc2cccc1c2	–	93.03	–	19.4	–	–	83.07	90.5	–	–	78.3	63.4	44.8	Dose-dependent effect	64.27	Dose-dependent effect	–	72.53	–
O=C1NCc2ccc(cc2)-c2cccc(c2)-c2ccc(cc2)CNC(=O)c2cccc(c2)OCc2cc(cc([N+](=O)[O-])c2)COc2cccc1c2	–	95.5	–	23.6	–	–	85.66	94.4	–	–	82.1	73.1	49.6	Dose-dependent effect	66.71	Dose-dependent effect	–	75.97	–
O=C1COc2ccccc2-c2ccccc2OCC(=O)NCc2ccc(cc2)-c2cccc(c2)-c2ccc(cc2)CN1	–	96.03	–	40.5	–	–	93.77	98.2	–	–	81.4	76.2	61.9	Dose-dependent effect	74.2	Dose-dependent effect	–	85.65	–
O=C(O)Cc1ccccc1Nc1c(Cl)cccc1Cl	–	–	–	5.3	–	–	–	76.5	–	–	21.3	15	10.9	–	–	–	–	–	–
O=C1NCc2ccc(cc2)-c2cccc(c2)-c2ccc(cc2)CNC(=O)c2cccc(c2)OCc2ccc(cc2)COc2cccc1c2	–	91.8	–	13.1	–	–	82.2	83.9	–	–	67.7	55.3	36.8	Dose-dependent effect	57.63	Dose-dependent effect	–	66.7	–
